Here are results for 67 compounds from US9006450B2 (Boehringer Ingelheim International GmbH, priority 2010, dated 2015).

Broadly, the IC50 is the concentration that gives 50% inhibition.

T1 sequence (O00763 129-2458 limits assumed): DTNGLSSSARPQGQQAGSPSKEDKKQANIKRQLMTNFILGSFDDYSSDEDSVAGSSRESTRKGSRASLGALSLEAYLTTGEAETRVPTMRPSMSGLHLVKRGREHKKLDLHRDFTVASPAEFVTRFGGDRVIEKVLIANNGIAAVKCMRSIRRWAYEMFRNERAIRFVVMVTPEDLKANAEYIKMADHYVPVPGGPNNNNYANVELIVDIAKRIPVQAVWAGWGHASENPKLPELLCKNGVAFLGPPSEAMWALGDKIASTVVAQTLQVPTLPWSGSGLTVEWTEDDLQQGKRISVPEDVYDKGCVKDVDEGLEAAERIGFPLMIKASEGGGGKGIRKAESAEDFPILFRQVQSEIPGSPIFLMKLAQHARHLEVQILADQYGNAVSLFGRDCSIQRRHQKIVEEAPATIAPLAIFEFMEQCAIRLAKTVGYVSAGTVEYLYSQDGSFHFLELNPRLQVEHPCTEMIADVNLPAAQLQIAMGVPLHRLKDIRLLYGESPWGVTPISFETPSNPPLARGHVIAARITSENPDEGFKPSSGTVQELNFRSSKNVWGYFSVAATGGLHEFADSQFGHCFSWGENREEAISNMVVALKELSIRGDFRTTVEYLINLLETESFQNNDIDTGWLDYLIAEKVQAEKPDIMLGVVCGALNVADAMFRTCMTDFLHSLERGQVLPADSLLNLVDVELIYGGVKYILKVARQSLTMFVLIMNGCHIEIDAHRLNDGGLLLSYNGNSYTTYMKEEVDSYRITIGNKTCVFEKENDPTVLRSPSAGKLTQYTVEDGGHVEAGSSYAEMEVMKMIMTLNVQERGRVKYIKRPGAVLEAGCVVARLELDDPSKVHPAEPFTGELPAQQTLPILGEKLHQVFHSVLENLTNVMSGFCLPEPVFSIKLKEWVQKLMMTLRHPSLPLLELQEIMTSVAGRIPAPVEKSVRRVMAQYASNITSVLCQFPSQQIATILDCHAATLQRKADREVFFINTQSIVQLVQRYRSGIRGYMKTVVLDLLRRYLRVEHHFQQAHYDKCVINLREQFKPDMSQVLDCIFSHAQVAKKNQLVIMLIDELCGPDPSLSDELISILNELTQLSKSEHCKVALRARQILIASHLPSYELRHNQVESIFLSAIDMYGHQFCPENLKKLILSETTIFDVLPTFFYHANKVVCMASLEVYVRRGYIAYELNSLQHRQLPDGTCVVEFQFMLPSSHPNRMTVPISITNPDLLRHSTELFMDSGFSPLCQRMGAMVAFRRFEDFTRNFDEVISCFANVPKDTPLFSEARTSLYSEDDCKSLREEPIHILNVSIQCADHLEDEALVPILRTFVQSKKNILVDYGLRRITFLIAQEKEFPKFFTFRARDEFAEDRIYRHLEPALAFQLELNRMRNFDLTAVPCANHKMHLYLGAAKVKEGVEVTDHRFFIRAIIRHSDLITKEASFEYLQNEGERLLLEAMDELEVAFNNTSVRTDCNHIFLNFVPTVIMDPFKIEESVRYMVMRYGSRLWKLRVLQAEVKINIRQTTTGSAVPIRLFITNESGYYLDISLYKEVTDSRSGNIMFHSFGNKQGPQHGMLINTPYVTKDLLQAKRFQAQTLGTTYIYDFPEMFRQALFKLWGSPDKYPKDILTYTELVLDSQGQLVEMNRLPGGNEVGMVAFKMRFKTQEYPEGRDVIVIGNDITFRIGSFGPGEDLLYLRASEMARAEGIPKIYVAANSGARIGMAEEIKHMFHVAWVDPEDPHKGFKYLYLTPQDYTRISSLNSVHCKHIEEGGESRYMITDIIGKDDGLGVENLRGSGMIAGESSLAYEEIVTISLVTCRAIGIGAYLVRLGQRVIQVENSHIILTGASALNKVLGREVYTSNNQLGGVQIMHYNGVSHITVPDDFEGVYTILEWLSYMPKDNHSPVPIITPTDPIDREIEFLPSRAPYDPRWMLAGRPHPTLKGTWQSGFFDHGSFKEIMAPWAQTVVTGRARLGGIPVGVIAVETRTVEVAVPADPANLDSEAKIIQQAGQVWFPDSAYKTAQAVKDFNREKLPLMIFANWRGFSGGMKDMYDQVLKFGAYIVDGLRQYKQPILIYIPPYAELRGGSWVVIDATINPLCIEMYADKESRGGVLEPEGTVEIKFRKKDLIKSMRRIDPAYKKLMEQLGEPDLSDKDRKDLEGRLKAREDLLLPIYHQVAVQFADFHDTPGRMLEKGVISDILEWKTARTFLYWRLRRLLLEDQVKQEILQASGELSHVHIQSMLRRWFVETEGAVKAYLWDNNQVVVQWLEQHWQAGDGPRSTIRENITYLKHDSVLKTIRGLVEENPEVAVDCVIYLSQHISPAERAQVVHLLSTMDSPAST

This test has as its target T1, human ACC2 (Homo sapiens, UniProt O00763).
T1 construct: made in house; host or cells: insect cells (baculoviral expression system)
Nature of the test: ACC2 assay, spectrophotometric 384 well assay (NADH-linked, coupled lactate dehydrogenase/pyruvate kinase). Type of test: biochemical. The following applies: ACC2 assay, hACC2 construct lacking 128 N-terminal amino acids, 25° C., 340 nm; read-out: IC50. In a few lines:
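Human ACC2 lacking N-terminal 128 aa, baculovirus/insect-cell expressed, anion-exchange purified; 100 mM Tris pH 7.5, 10 mM citrate, 25 mM KHCO3, 1% DMSO. Started with 200 μM NADH and acetyl-CoA plus 500 μM ATP; PK/LDH-coupled A340 decrease read 15 min at 25° C. IC50 by nonlinear fit of low-control-subtracted slopes.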
For the compound `CC(=O)N[C@@H](C)c1ccc(C2CCN(c3ccnc(NCC4CCC4)n3)CC2)cc1` [Example 11.94], the IC50 worked out at 1.7 µM.
Take `CC#CCOc1cc(N2CCC(c3ccc([C@H](C)NC(C)=O)cc3)CC2)ncn1` [Example 11.19]: the IC50 was found to be 0.88 µM.
In the case of `CC(=O)N[C@@H](C)c1ccc(C2CCN(c3ccc(F)c(C)c3)CC2)cc1` [Example 1.155] it was 0.41 µM; in that of `CC(=O)N[C@@H](C)c1ccc(C2CCN(c3cc(OCC(C)C)ncn3)CC2)cc1` [Example 11.15], 0.23 µM.
As to `COCCOc1nccc(N2CCC(c3ccc([C@H](C)NC(C)=O)cc3)CC2)n1` [Example 11.30], the IC50 turned out to be 8.4 µM.
Consider `CC(=O)N[C@@H](C)c1ccc(C2CCN(c3ccc(I)cn3)CC2)cc1` [Example 5.12], for which the IC50 was 0.22 µM.
On to `CC(=O)N[C@@H](C)c1ccc(C2CCN(c3ncc(C(=O)NCCN4CCCC4)cn3)CC2)cc1` [Example 18.51], for which the IC50 is 13.8 µM.
The figure for `CC(=O)N[C@@H](C)c1ccc(C2CCN(c3cc(NCC4CC4)ncn3)CC2)cc1` [Example 11.112] is 1.1 µM; for `CCOc1ccc(N2CCC(c3ccc([C@H](C)NC(=O)Nc4cccnc4)cc3)CC2)cc1` [Example 14.55] it is 1.7 µM; for `CC(=O)N[C@@H](C)c1ccc(C2CCN(c3ncccn3)CC2)cc1` [Example 4.45] it is 1.5 µM.
As for `COc1ccc2nc(N3CCC(c4ccc([C@H](C)NC(C)=O)cc4)CC3)ccc2c1` [Example 5.24], the IC50 is 0.99 µM.
In the case of `CC(=O)N[C@@H](C)c1ccc(C2CCN(c3cc(-c4ccc5c(c4)OCO5)ncn3)CC2)cc1` [Example 22.2] it was 2.5 µM; in that of `CCCC(C)Oc1ccc(N2CCC(c3ccc([C@H](C)NC(C)=O)cc3)CC2)cc1F` (stereo partly shown) [Example 8.58], 0.37 µM; in that of `CC(=O)N[C@@H](C)c1ccc(C2CCN(c3ncc(C(=O)NCC4CCCCN4)cn3)CC2)cc1` (stereo partly shown) [Example 18.65], 10.2 µM.
Regarding `CC(=O)N[C@@H](C)c1ccc(C2CCN(c3cc(NCC(C)C)ncn3)CC2)cc1` [Example 11.65], the IC50 turned out to be 4.7 µM.
Consider `CC(=O)N[C@@H](C)c1ccc(C2CCN(c3cc(NC4CCCC4)ncn3)CC2)cc1` [Example 11.103], for which the IC50 was 2.6 µM.
`CC(=O)N[C@@H](C)c1ccc(C2CCN(c3ncc(C(=O)NCc4ccccc4)cn3)CC2)cc1` [Example 18.92]: the IC50 is 2.2 µM.
In the case of `CCCNc1ccc(N2CCC(c3ccc([C@H](C)NC(C)=O)cc3)CC2)cc1` [Example 24.1, (S)—N-(1-{4-[1-(4-(Propylamino)phenyl)-piperidin-4-yl]-phenyl}-ethyl)-acetamide], the IC50 turned out to be 1 µM.
Turning to `COc1ccc(N2CCC(c3ccc([C@H](C)NC(C)=O)cc3)CC2)cc1` [Example 1.30], the IC50 came out at 0.23 µM.
In the case of `COc1cc(N2CCC(c3ccc([C@H](C)NC(C)=O)cc3)CC2)ccc1OCC1CC1` [Example 9.44] it was 0.48 µM; in that of `COc1ncc(N2CCC(c3ccc([C@H](C)NC(C)=O)cc3)CC2)cn1` [Example 16.2], 4.8 µM; in that of `CCOc1ccc(N2CCC(c3ccc([C@H](C)NC(=O)N4CCOCC4)cc3)CC2)cc1` [Example 14.63], 1.6 µM.
In the case of `CCCOc1ccc(N2CCC(c3ccc([C@H](C)NC(C)=O)cc3)CC2)cc1F` [Example 8.62], the IC50 is 0.2 µM.
For `CC(=O)N[C@@H](C)c1ccc(C2CCN(c3ccnc(OC(C)c4ccccc4)c3)CC2)cc1` (stereo partly shown) [Example 19.7], the IC50 stood at 0.59 µM.
On to `COCc1ccc(-c2cnc(N3CCC(c4ccc([C@H](C)NC(C)=O)cc4)CC3)nc2)cc1` [Example 10.32], for which the IC50 worked out at 0.41 µM.
On to `CC(=O)N[C@@H](C)c1ccc(C2CCN(c3ncc(-c4ccc(F)c(F)c4)cn3)CC2)cc1` [Example 10.52], for which the IC50 was 0.07 µM.
Take `COc1cc(N2CCC(c3ccc([C@H](C)NC(C)=O)cc3)CC2)ccc1OC1CCCC1` [Example 8.38]: the IC50 was 1.2 µM.
`CC(C)Oc1ncc(F)c(N2CCC(c3ccc([C@H](C)NC(=O)C4CC4)cc3)CC2)n1` [Example 11.129]: the half-inhibitory concentration (IC50) stood at 1.3 µM.
As to `CCOCC(=O)N[C@@H](C)c1ccc(C2CCN(c3ccc(OCC)cc3)CC2)cc1` [Example 6.17], the IC50 turned out to be 1.9 µM.
Consider `CCCOc1ccc(N2CCC(c3ccc([C@@H](C)NC(C)=O)cc3)CC2)c(OC)c1` [Example 15.23], for which the IC50 worked out at 6.4 µM.
On to `CCOc1ccc(N2CCC(c3ccc(C4(NC(C)=O)CC4)cc3)CC2)cc1` [Example 3.20], for which the concentration for half-maximal inhibition (IC50) was found to be 7.4 µM.
For the compound `CC(=O)N[C@@H](C)c1ccc(C2CCN(c3ccc(OCCn4ccnc4)cc3)CC2)cc1` [Example 1.109], the IC50 is 3.1 µM.
Regarding `CC(=O)N[C@@H](C)c1ccc(C2CCN(c3ccnc(OC(C)C4CC4)c3)CC2)cc1` (stereo partly shown) [Example 19.27], the IC50 stood at 0.41 µM.
`CCCOc1ccc(N2CCC(c3ccc([C@H](C)NC(C)=O)cc3)CC2)c(C)c1` [Example 1.32]: the IC50 was 0.09 µM.
Take `CC(=O)N[C@@H](C)c1ccc(C2CCN(c3cc(NC(C)c4ccccc4)ncn3)CC2)cc1` (stereo partly shown) [Example 11.40]: the IC50 came out at 8.1 µM.
Turning to `CC(=O)N[C@@H](C)c1ccc(C2CCN(c3ncc(-c4ccc5[nH]ccc5c4)cc3F)CC2)cc1` [Example 10.302], the IC50 turned out to be 0.43 µM.
`CCC(C)Oc1ccc(N2CCC(c3ccc([C@H](C)NC(C)=O)cc3)CC2)cc1Cl` (stereo partly shown) [Example 8.55]: the IC50 amounted to 0.3 µM.
`CC(=O)N[C@@H](C)c1ccc(C2CCN(c3ncc(C(=O)N4CCC(C(N)=O)CC4)cn3)CC2)cc1` [Example 18.61]: the IC50 was 18.9 µM.
Take `CCOc1ccc(N2CCC(c3ccc([C@H](C)NC(=O)c4ncc[nH]4)cc3)CC2)cc1` [Example 6.35]: the IC50 came out at 7.1 µM.
On to `CC(=O)N[C@@H](C)c1ccc(C2CCN(c3ncc(C(C)(C)C)s3)CC2)cc1` [Example 4.102], for which the IC50 came to 0.47 µM.
The figure for `CC(=O)N[C@@H](C)c1ccc(C2CCN(c3ncc(C(=O)N4CCC4)cn3)CC2)cc1` [Example 18.76] is 4 µM; for `CC(=O)N[C@@H](C)c1ccc(C2CCN(c3ccnc(N(C)C(C)C)n3)CC2)cc1` [Example 11.47] it is 0.54 µM.
Take `CC(=O)N[C@@H](C)c1ccc(C2CCN(c3cc(N(C)C(C)C)ncn3)CC2)cc1` [Example 11.48]: the IC50 worked out at 0.58 µM.
In the case of `CC(=O)Nc1cnc(N2CCC(c3ccc([C@H](C)NC(C)=O)cc3)CC2)nc1` [Example 4.34] it was 9.5 µM; in that of `CC(=O)N[C@@H](C)c1ccc(C2CCN(c3ncc(C(=O)NC(C)C)cn3)CC2)cc1` [Example 18.48], 3.6 µM.
`CC(=O)N[C@@H](C)c1ccc(C2CCN(c3cc(I)ccn3)CC2)cc1` [Example 5.17]: the concentration for half-maximal inhibition (IC50) worked out at 1.2 µM.
In the case of `CC(=O)N[C@@H](C)c1ccc(C2CCN(c3cc(O[C@H]4CCOC4)ncn3)CC2)cc1` [Example 11.17] it was 1.2 µM.
As to `C[C@H](NC(=O)C1CC1)c1ccc(C2CCN(c3nc(N(C)CC4CC4)ncc3F)CC2)cc1` [Example 11.125], the IC50 turned out to be 0.34 µM.
As for `CC(=O)N[C@@H](C)c1ccc(C2CCN(c3ccc(OCC4CCO4)c(C)c3)CC2)cc1` (stereo partly shown) [Example 8.47], the IC50 was 2.6 µM.
Turning to `CCCn1ccc(N2CCC(c3ccc([C@H](C)NC(C)=O)cc3)CC2)cc1=O` [Example 3.9], the half-maximal inhibitory concentration (IC50) was found to be 13.3 µM.
On to `CC(=O)N[C@@H](C)c1ccc(C2CCN(c3ncc(-c4ccc5c(c4)OCCO5)cn3)CC2)cc1` [Example 10.23], for which the IC50 was 0.29 µM.
In the case of `CC(=O)N[C@@H](C)c1ccc(C2CCN(c3ncc(-c4ccc5c(c4)OCCCO5)cn3)CC2)cc1` [Example 10.26] it was 0.41 µM; in that of `CC(=O)N[C@@H](C)c1ccc(C2CCN(c3ccc(OCC4CCCO4)cc3)CC2)cc1` (stereo partly shown) [Example 1.167], 0.91 µM.
As for `CCOc1cc(N2CCC(c3ccc([C@H](C)NC(C)=O)cc3)CC2)ccn1` [Example 1.191], the IC50 stood at 0.39 µM.
With `C[C@H](NC(=O)C1CC1)c1ccc(C2CCN(c3cccc(OCC4CC4)c3)CC2)cc1` [Example 1.77], the IC50 was 0.9 µM.
Consider `CC(=O)N[C@@H](C)c1ccc(C2CCN(c3ncc(C(=O)NCCC(=O)N(C)C)cn3)CC2)cc1` [Example 18.66], for which the IC50 stood at 15.8 µM.
In the case of `CCOc1ccc(N2CCC(c3ccc([C@H](C)NC(=O)OC)cc3)CC2)c(C#N)c1` [Example 15.18] it was 0.33 µM; in that of `CC(C)Oc1cccc(N2CCC(c3ccc([C@H](C)NC(=O)C4CC4)cc3)CC2)c1` [Example 1.78], 3.4 µM.
Take `CC(=O)N[C@@H](C)c1ccc(C2CCN(c3cccc(OC4CCCCC4)c3)CC2)cc1` [Example 9.6]: the IC50 stood at 0.13 µM.
As to `CC(=O)N[C@@H](C)c1ccc(C2CCN(c3cccc(OCC4CCC4)c3)CC2)cc1` [Example 9.12], the IC50 was found to be 0.25 µM.
As for `C[C@H](NC(=O)N(C)C)c1ccc(C2CCN(c3ccc(OCC4CC4(F)F)cc3)CC2)cc1` (stereo partly shown) [Example 1.140], the IC50 is 0.09 µM.
The figure for `CC(=O)N[C@@H](C)c1ccc(C2CCN(c3ccnc(OCc4ccc(F)cc4)c3)CC2)cc1` [Example 19.33] is 0.4 µM; for `CC(=O)N[C@@H](C)c1ccc(C2CCN(c3ccnc(OCCc4ccccc4)n3)CC2)cc1` [Example 11.13] it is 4.6 µM; for `CC(=O)N[C@@H](C)c1ccc(C2CCN(c3ncc(-c4ccc(F)c(C)c4)cn3)CC2)cc1` [Example 10.49] it is 0.26 µM.
As for `CCC(NC(C)=O)c1ccc(C2CCN(c3ccc(OCC4CC4)cc3F)CC2)cc1` (stereo not shown) [Example 1.202], the IC50 came to 1.9 µM.
The figure for `COc1ccc(-c2cnc(N3CCC(c4ccc([C@H](C)NC(C)=O)cc4)CC3)nc2)cc1Cl` [Example 10.57] is 0.24 µM.
Turning to `CC(=O)N[C@@H](C)c1ccc(C2CCN(c3ccc(OCCC(F)(F)F)cc3)CC2)cc1` [Example 1.165], the IC50 amounted to 0.1 µM.
